Results reported in patent EP1953147A1, “HETEROCYCLIC COMPOUND AND MEDICINAL APPLICATION THEREOF” (priority 2005, dated 2007).

These molecules were tested on ΔG/SEAP/HCV E1E2 (assay: Effect of test substance on cell infection with HCV pseudotype virus (SEAP reporter assay in HepG2 cells)). Settings: Hepatitis C virus.
Type: cell-based

| Compound | IC50 |
| --- | --- |
| COc1cc(OC)cc(-c2nn(-c3c(Cl)cccc3Cl)c(=O)c3c2CCC3)c1 [Example 87, 2-(2,6-dichloro-phenyl)-4-(3,5-dimethoxy-phenyl)-2,5,6,7-tetrahydro-cyclopenta[d]pyridazin-1-one] | < 100 nM |
| COCCNC(=O)CN1CCc2c(-c3cc(OC)cc(OC)c3)nn(-c3cc(N4CC[C@H](O)C4)ccc3C(F)(F)F)c(=O)c21 [Example 36, 2-{4-(3,5-dimethoxy-phenyl)-6-[5-((S)-3-hydroxy-pyrrolidin-1-yl)-2-trifluoromethyl-phenyl]-7-oxo-2,3,6,7-tetrahydro-pyrrolo[2,3-d]pyridazin-1-yl}-N-(2-methoxy-ethyl)-acetamide] | < 100 nM |
| O=c1c2c(c(-c3ccc(C(F)(F)F)cc3)nn1-c1cc(N3CC[C@H](O)C3)ccc1C(F)(F)F)CCC2 [Example 75, 2-[5-((S)-3-hydroxy-pyrrolidin-1-yl)-2-trifluoromethyl-phenyl]-4-(4-trifluoromethyl-phenyl)-2,5,6,7-tetrahydro-cyclopenta[d]pyridazin-1-one] | 100 to 10000 nM |
| COc1cc(OC)cc(-c2nn(-c3cc(NCCC(=O)O)ccc3C(F)(F)F)c(=O)c3c2CCC3)c1 [Example 122, 3-{3-[4-(3,5-dimethoxy-phenyl)-1-oxo-1,5,6,7-tetrahydro-cyclopenta[d]pyridazin-2-yl]-4-trifluoromethyl-phenylamino}-propionic acid] | < 100 nM |
| COc1cc(OC)cc(-c2nn(-c3cc(F)ccc3C(F)(F)F)c(=O)c3c2CCC3)c1 [Example 1-12, 4-(3,5-dimethoxy-phenyl)-2-(5-fluoro-2-trifluoromethylphenyl)-2,5,6,7-tetrahydro-cyclopenta[d]pyridazin-1-one] | 100 to 10000 nM |
| COc1cc(OC)cc(-c2nn(-c3cc(NCCCC(=O)O)ccc3C(F)(F)F)c(=O)c3c2CCC3)c1 [Example 151, 4-{3-[4-(3,5-dimethoxy-phenyl)-1-oxo-1,5,6,7-tetrahydro-cyclopenta[d]pyridazin-2-yl]-4-trifluoromethyl-phenylamino}-butyric acid] | < 100 nM |
| CCCCCC(=O)NCCNC(=O)CN1CCc2c(-c3cc(OC)cc(OC)c3)nn(-c3cc(N4CC[C@H](O)C4)ccc3C(F)(F)F)c(=O)c21 [Example 46, hexanoic acid [2-(2-{4-(3,5-dimethoxy-phenyl)-6-[5-((S)-3-hydroxy-pyrrolidin-1-yl)-2-trifluoromethylphenyl]-7-oxo-2,3,6,7-tetrahydro-pyrrolo[2,3-d]pyridazin-1-yl}-acetylamino)-ethyl]-amide] | < 100 nM |
| O=c1c2c(c(-c3ccccc3Cl)nn1-c1cc(N3CC[C@H](O)C3)ccc1C(F)(F)F)CCC2 [Example 96, 4-(2-chloro-phenyl)-2-[5-((S)-3-hydroxy-pyrrolidin-1-yl)-2-trifluoromethyl-phenyl]-2,5,6,7-tetrahydro-cyclopenta[d]pyridazin-1-one] | 100 to 10000 nM |
| COc1cc(OC)cc(-c2nn(-c3cc(NCCN(C)C(=O)OC(C)(C)C)ccc3C(F)(F)F)c(=O)c3c2CCC3)c1 [Example 156, (2-{3-[4-(3,5-dimethoxy-phenyl)-1-oxo-1,5,6,7-tetrahydro-cyclopenta[d]pyridazin-2-yl]-4-trifluoromethyl-phenylamino}-ethyl)-methyl-carbamic acid tert-butyl ester] | 100 to 10000 nM |
| COc1cc(OC)cc(-c2nn(-c3cc(-c4cccnn4)ccc3C(F)(F)F)c(=O)c3c2CCN3)c1 [Example 17, 4-(3,5-dimethoxy-phenyl)-6-(5-pyridazin-3-yl-2-trifluoromethyl-phenyl)-1,2,3,6-tetrahydro-pyrrolo[2,3-d]pyridazin-7-one] | < 100 nM |
| COC(=O)CNc1ccc(C(F)(F)F)c(-n2nc(-c3cc(OC)cc(OC)c3)c3c(c2=O)CCC3)c1 [Example 126, {3-[4-(3,5-dimethoxy-phenyl)-1-oxo-1,5,6,7-tetrahydro-cyclopenta[d]pyridazin-2-yl]-4-trifluoromethyl-phenylamino}-acetic acid methyl ester] | < 100 nM |
| Cc1ccc(-c2nn(-c3cc(N4CC[C@H](O)C4)ccc3C(F)(F)F)c(=O)c3c2CCC3)cc1 [Example 114, 2-[5-((S)-3-hydroxy-pyrrolidin-1-yl)-2-trifluoromethyl-phenyl]-4-p-tolyl-2,5,6,7-tetrahydro-cyclopenta[d]pyridazin-1-one] | < 100 nM |
| COc1cc(OC)cc(-c2nn(-c3cc(NCCNC(C)=O)ccc3C(F)(F)F)c(=O)c3c2CCC3)c1 [Example 117, N-(2-{3-[4-(3,5-dimethoxy-phenyl)-1-oxo-1,5,6,7-tetrahydro-cyclopenta[d]pyridazin-2-yl]-4-trifluoromethyl-phenylamino}-ethyl)-acetamide] | < 100 nM |
| COc1cc(OC)cc(-c2nn(-c3cc(N4CC[C@H](O)C4)ccc3C(F)(F)F)c(=O)c3c2SCC3)c1 [Example 1-37, 7-(3,5-dimethoxy-phenyl)-5-[5-((S)-3-hydroxy-pyrrolidin-1-yl)-2-trifluoromethyl-phenyl]-3,5-dihydro-2H-thieno[2,3-d]pyridazin-4-one] | < 100 nM |
| Cc1cc(C)cc(-c2nn(-c3cc(N4CC[C@H](O)C4)ccc3C(F)(F)F)c(=O)c3c2CC(C)N3)c1 (stereo partly drawn) [Example 1-33, 4-(3,5-dimethyl-phenyl)-6-[5-((S)-3-hydroxy-pyrrolidin-1-yl)-2-trifluoromethyl-phenyl]-2-methyl-1,2,3,6-tetrahydro-pyrrolo[2,3-d]pyridazin-7-one] | < 100 nM |
| COc1cc(OC)cc(-c2nn(-c3cc(NCC(CO)CO)ccc3C(F)(F)F)c(=O)c3c2CCN3CCO)c1 [Example 1-43, 4-(3,5-dimethoxy-phenyl)-1-(2-hydroxy-ethyl)-6-[5-(3-hydroxy-2-hydroxymethyl-propylamino)-2-trifluoromethyl-phenyl]-1,2,3,6-tetrahydro-pyrrolo[2,3-d]pyridazin-7-one] | < 100 nM |
| COc1cc(OC)cc(-c2nn(-c3cc(NCCC(=O)OC(C)(C)C)ccc3C(F)(F)F)c(=O)c3c2CCC3)c1 [Example 115, 3-{3-[4-(3,5-dimethoxy-phenyl)-1-oxo-1,5,6,7-tetrahydro-cyclopenta[d]pyridazin-2-yl]-4-trifluoromethyl-phenylamino}-propionic acid tert-butyl ester] | < 100 nM |
| COc1cc(OC)cc(-c2nn(-c3cc(C)ccc3C(F)(F)F)c(=O)c3c2CCC3)c1 [Example 88, 4-(3,5-dimethoxy-phenyl)-2-(5-methyl-2-trifluoromethyl-phenyl)-2,5,6,7-tetrahydro-cyclopenta[d]pyridazin-1-one] | < 100 nM |
| COc1cc(OC)cc(-c2nn(-c3cc(NCCCC(N)=O)ccc3C(F)(F)F)c(=O)c3c2CCC3)c1 [Example 152, 4-{3-[4-(3,5-dimethoxy-phenyl)-1-oxo-1,5,6,7-tetrahydro-cyclopenta[d]pyridazin-2-yl]-4-trifluoromethyl-phenylamino}-butyramide] | < 100 nM |
| COc1cc(OC)cc(-c2nn(-c3cc(OCCO)ccc3C(F)(F)F)c(=O)c3c2CCC3)c1 [Example 63, 4-(3,5-dimethoxy-phenyl)-2-[5-(2-hydroxy-ethoxy)-2-trifluoromethyl-phenyl]-2,5,6,7-tetrahydro-cyclopenta[d]pyridazin-1-one] | < 100 nM |
| COc1cc(OC)cc(-c2nn(-c3cc(NCCCN(C)C)ccc3C(F)(F)F)c(=O)c3c2CCC3)c1 [Example 128, 4-(3,5-dimethoxy-phenyl)-2-[5-(3-dimethylamino-propylamino)-2-trifluoromethyl-phenyl]-2,5,6,7-tetrahydro-cyclopenta[d]pyridazin-1-one] | < 100 nM |
| COc1cc(OC)cc(-c2nn(-c3ccc(Br)cc3C(F)(F)F)c(=O)c3c2CCC3)c1 [Example 106, 2-(4-bromo-2-trifluoromethyl-phenyl)-4-(3,5-dimethoxy-phenyl)-2,5,6,7-tetrahydro-cyclopenta[d]pyridazin-1-one] | 100 to 10000 nM |
| COc1cc(OC)cc(-c2nn(-c3cc(NCC(N)=O)ccc3C(F)(F)F)c(=O)c3c2CCC3)c1 [Example 123, 2-{3-[4-(3,5-dimethoxy-phenyl)-1-oxo-1,5,6,7-tetrahydro-cyclopenta[d]pyridazin-2-yl]-4-trifluoromethyl-phenylamino}-acetamide] | < 100 nM |
| COc1cc(OC)cc(-c2nn(-c3ccccc3C(F)(F)F)c(=O)c3c2CCC3)c1 [Example 107, 4-(3,5-dimethoxy-phenyl)-2-(2-trifluoromethylphenyl)-2,5,6,7-tetrahydro-cyclopenta[d]pyridazin-1-one] | 100 to 10000 nM |
| Cc1cc(C)cc(-c2nn(-c3cc(N4CC[C@H](O)C4)ccc3C(F)(F)F)c(=O)c3c2CCC3)c1 [Example 4, 4-(3,5-dimethyl-phenyl)-2-[5-((S)-3-hydroxy-pyrrolidin-1-yl)-2-trifluoromethyl-phenyl]-2,5,6,7-tetrahydro-cyclopenta[d]pyridazin-1-one] | < 100 nM |
| COc1cc(OC)cc(-c2nn(-c3cc(NC4CC4)ccc3C(F)(F)F)c(=O)c3c2CCC3)c1 [Example 140, 2-(5-cyclopropylamino-2-trifluoromethyl-phenyl)-4-(3,5-dimethoxy-phenyl)-2,5,6,7-tetrahydro-cyclopenta[d]pyridazin-1-one] | < 100 nM |
| COc1cc(OC)cc(-c2nn(-c3cc(N4CCC(=O)C4)ccc3C(F)(F)F)c(=O)c3c2CCN3)c1 [Example 25, 4-(3,5-dimethoxy-phenyl)-6-[5-(3-oxo-pyrrolidin-1-yl)-2-trifluoromethyl-phenyl]-1,2,3,6-tetrahydro-pyrrolo[2,3-d]pyridazin-7-one] | < 100 nM |
| COc1cc(C)cc(-c2nn(-c3cc(N4CC[C@H](O)C4)ccc3C(F)(F)F)c(=O)c3c2CC(C)N3)c1 (stereo partly drawn) [Example 16, 6-[5-((S)-3-hydroxy-pyrrolidin-1-yl)-2-trifluoromethyl-phenyl]-4-(3-methoxy-5-methyl-phenyl)-2-methyl-1,2,3,6-tetrahydro-pyrrolo[2,3-d]pyridazin-7-one] | < 100 nM |
| COc1cc(C)cc(-c2nn(-c3cc(-c4cccnn4)ccc3C(F)(F)F)c(=O)c3c2CCC3)c1 [Example 1-4, 4-(3-methoxy-5-methyl-phenyl)-2-[5-(pyridazin-3-yl)-2-trifluoromethyl-phenyl]-2,5,6,7-tetrahydro-cyclopenta[d]pyridazin-1-one] | < 100 nM |
